Experimental data as given in patent US20040229251A1, “Detection of guanylyl and adenylyl cyclase activity” (The Regents of the University of Michigna, priority 2003, published 2004).

What was measured:
[1] = tested on: wild type adenylyl cyclases (ACs); conditions: addition of Mn2+ compared with Mg2+; cited from earlier work
[2] = molecular target: T1, VC1 and ACGC domains (UniProt P26769+P30803, D1018C/K938E); assay: guanylyl cyclase activity in the presence of Mn2+, BODIPY FL-GTPγS as substrate; assay type: biochemical; conditions: 5 mM Mg2+ and 5 mM Mn2+ vs 10 mM Mg2+
T1 construct: The soluble intracellular (C1 and C2) domains of adenylyl cyclase were utilized; The mutations to enhance guanylyl cyclase activity are in the C2 domain
Method: This Example describes the effect of Mn^2+ on guanylyl cyclase activity. All assays were performed at 22° C. in the presence of 2 μM BODIPY FL-GTPγS and the presence of 5 mM Mg ^2+ and 5 mM Mn^2+ or 10 mM Mg^2+ and the absence or presence of 100 μM forskolin (Fsk). Assays were performed in a 96 well, low fluorescence microtitre plate using a fluorescence plate reader. Excitation and emission wavelengths were 485 and 525 nm respectively.
The linear portion of the progress curves from data in FIG. 2B was fitted by linear regression with respect to time. The individual rates are plotted against the concentration of the VC1 domain.

[3] = molecular target: T2, membrane-bound form of AC1 (adenylyl cyclase type I) expressed in sf9 cells (Homo sapiens, UniProt Q08828); assay: membrane cyclase fluorescence assay; assay type: biochemical
T2 construct: made in house; host or cells: sf9 cells
Method: The activity of a membrane-bound form of AC1 (adenylyl cyclase type I) expressed in sf9 cells was measured using the fluorescence assay described above.

T2 sequence (Q08828 whole entry): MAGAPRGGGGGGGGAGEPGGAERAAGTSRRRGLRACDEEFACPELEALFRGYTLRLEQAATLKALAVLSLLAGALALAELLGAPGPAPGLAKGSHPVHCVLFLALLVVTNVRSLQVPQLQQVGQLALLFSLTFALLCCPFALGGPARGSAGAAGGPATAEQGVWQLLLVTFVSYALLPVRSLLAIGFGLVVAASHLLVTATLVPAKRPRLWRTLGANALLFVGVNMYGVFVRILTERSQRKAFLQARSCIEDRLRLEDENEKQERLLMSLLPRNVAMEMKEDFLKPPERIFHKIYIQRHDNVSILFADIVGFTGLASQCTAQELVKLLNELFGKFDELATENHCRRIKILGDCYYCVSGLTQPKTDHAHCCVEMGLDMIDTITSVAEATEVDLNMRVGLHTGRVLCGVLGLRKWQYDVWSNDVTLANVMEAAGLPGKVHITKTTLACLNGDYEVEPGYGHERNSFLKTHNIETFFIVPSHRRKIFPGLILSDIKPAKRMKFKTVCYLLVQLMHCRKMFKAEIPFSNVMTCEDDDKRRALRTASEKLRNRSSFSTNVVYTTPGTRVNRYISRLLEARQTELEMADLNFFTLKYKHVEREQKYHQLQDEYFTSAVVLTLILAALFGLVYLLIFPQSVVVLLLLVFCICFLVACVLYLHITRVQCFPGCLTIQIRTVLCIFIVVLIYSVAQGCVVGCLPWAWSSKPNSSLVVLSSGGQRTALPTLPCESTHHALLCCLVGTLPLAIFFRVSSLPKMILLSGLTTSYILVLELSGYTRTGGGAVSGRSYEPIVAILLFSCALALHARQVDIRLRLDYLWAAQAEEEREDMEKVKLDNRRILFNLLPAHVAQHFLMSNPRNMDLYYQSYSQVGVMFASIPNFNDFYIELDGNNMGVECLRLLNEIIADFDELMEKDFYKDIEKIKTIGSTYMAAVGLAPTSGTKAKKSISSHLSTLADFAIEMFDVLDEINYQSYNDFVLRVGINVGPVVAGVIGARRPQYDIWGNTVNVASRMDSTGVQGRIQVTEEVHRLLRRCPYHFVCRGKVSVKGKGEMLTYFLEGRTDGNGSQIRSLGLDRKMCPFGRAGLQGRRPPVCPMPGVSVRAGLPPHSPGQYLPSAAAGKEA

Compound	alteration of the Km for GTP [1]	enhancement of the forskolin-activated rate of accumulation of BODIPY-thio-pyrophosphate ([2]; 100 μM forskolin)	effect on basal activity ([2]; absence of forskolin)	effective concentration to produce the half maximal activation (EC50) [3]
[Mn+2] [Mn^2+]	at least 1000 fold	over thirty-fold	enhanced basal activity significantly	
C=C[C@@]1(C)CC(=O)[C@]2(O)[C@@]3(C)[C@@H](O)CCC(C)(C)[C@@H]3[C@H](O)[C@H](OC(C)=O)[C@@]2(C)O1 [forskolin]				consistent with previously published values
